From patent publication US9376436B2, “2-(pyridin-2yl)-1, 7-diaza-spiro [4.4] nonane-6-one compound as voltage-gated sodium channels modulators” (CONVERGENCE PHARMACEUTICALS LIMITED, priority 2011, dated 2016)
Where a name gives a salt, the structure may show the parent alone. Read-outs that look alike come from different tables or passages of the source.

Target: T1, hNaV1.7 (Homo sapiens, UniProt Q15858)
T1 construct: expressed in transfected cells; host or cells: HEK293
Test: QPatch NaV1.7 assay (whole-cell patch clamp, QPatch16x)
Assay type: cell-based
Settings: HEK293-hNaV1.7 cells
How it was run: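 HEK293 cells expressing hNaV1.7 recorded by automated whole-cell patch clamp (CsF internal, pH 7.3). Peak currents from 20 ms steps to 0 mV measured at holding potentials of −90 mV and V1/2 SSI; four-point cumulative concentrations, 120 s each, Hill fits gave pIC50 at each potential.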

[1] = holding voltage V1/2 SSI (half of channels inactivated), read-out: QP Nav1.7 SSI vhalf pIC50 (converted)
[2] = holding voltage −90 mV (most channels closed), read-out: QP Nav1.7 −90 mV pIC50 (converted)

T1 sequence (Q15858 whole entry): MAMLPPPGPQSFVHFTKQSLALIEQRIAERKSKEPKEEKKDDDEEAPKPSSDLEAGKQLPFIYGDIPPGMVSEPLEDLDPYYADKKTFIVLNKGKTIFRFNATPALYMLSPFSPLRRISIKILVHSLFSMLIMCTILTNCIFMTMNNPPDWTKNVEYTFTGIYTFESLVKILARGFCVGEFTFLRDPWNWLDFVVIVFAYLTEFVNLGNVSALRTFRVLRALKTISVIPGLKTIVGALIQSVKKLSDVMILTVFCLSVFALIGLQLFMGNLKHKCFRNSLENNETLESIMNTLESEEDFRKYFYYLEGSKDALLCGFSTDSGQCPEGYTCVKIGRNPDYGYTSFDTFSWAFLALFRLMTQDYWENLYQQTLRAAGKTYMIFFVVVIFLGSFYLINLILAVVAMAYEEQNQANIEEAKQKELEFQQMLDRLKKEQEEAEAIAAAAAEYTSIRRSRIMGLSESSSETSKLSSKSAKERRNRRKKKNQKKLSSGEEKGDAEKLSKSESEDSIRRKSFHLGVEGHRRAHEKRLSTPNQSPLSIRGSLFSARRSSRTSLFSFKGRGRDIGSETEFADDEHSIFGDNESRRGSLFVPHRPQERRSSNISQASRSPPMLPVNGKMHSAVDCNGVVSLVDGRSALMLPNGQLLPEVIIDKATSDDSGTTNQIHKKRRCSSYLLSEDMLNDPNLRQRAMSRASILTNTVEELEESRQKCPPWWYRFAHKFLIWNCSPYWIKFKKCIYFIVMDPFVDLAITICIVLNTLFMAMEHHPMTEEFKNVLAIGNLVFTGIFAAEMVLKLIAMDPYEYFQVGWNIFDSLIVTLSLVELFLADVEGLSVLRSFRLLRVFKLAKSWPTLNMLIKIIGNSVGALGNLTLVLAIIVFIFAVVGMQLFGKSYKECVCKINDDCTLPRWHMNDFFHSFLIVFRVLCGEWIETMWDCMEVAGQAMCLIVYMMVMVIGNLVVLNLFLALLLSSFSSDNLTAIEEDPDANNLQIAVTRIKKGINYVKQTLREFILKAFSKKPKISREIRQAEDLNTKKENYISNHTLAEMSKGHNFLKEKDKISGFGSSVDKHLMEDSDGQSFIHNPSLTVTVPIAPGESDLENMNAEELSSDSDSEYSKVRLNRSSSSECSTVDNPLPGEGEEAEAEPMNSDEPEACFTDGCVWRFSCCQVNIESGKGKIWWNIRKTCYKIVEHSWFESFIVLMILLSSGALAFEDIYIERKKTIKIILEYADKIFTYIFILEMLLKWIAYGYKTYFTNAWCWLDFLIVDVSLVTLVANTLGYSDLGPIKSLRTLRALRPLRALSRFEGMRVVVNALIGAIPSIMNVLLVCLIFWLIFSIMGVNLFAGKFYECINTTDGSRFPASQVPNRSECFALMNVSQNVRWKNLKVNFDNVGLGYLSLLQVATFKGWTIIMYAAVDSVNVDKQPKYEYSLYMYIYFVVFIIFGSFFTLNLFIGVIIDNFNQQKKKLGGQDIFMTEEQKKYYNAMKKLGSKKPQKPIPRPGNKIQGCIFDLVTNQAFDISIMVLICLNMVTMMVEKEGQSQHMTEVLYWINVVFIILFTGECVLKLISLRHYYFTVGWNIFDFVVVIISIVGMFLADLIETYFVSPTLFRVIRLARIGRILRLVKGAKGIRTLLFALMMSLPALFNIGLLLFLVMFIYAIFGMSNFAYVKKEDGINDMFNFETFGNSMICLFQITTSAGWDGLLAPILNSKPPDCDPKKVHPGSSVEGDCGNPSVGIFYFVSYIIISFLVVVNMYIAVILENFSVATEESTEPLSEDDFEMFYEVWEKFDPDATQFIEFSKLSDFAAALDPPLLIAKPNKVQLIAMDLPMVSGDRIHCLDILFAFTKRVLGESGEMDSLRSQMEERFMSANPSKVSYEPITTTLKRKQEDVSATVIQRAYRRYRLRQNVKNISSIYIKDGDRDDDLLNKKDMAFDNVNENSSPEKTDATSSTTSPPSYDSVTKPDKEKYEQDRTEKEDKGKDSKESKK

| SMILES | IC50 [1] [µM] | IC50 [2] [µM] |
| --- | --- | --- |
| CCOc1ccc(F)c(-c2ccnc([C@@H]3CC[C@]4(CCCNC4=O)N3)c2)c1 [Example 106, (2S,5S)-2-[4-(5-Ethoxy-2-fluoro-phenyl)-pyridin-2-yl]-1,7-diaza-spiro[4.5]decan-6-one hydrochloride] | 2 | 5.01 |
| CCOc1ccc(F)c(-c2ccnc([C@H]3CC[C@]4(CCCNC4=O)N3)c2)c1 [Example 107, (2R,5S)-2-[4-(5-Ethoxy-2-fluoro-phenyl)-pyridin-2-yl]-1,7-diaza-spiro[4.5]decan-6-one hydrochloride] | 0.2 | 1.58 |
| CCOc1ccc(F)c(-c2ccnc([C@H]3CC[C@@]4(CCCNC4=O)N3)c2)c1 [Example 108, (2R,5R)-2-[4-(5-Ethoxy-2-fluoro-phenyl)-pyridin-2-yl]-1,7-diaza-spiro[4.5]decan-6-one hydrochloride] | 0.0631 | 1.26 |
| CCOc1ccc(F)c(-c2ccnc([C@@H]3CC[C@@]4(CCCNC4=O)N3)c2)c1 [Example 109, (2S,5R)-2-[4-(5-Ethoxy-2-fluoro-phenyl)-pyridin-2-yl]-1,7-diaza-spiro[4.5]decan-6-one hydrochloride] | 1 | 2 |
| O=C1NCCC[C@@]12CC[C@@H](c1cc(-c3ccc(F)cc3)ccn1)N2 [Example 110, (2S,5R)-2-[4-(4-Fluoro-phenyl)-pyridin-2-yl]-1,7-diaza-spiro[4.5]decan-6-one hydrochloride] | 10 | 251 |
| O=C1NCCC[C@@]12CC[C@H](c1cc(-c3ccc(F)cc3)ccn1)N2 [Example 111, (2R,5R)-2-[4-(4-Fluoro-phenyl)-pyridin-2-yl]-1,7-diaza-spiro[4.5]decan-6-one hydrochloride] | 63.1 | 200 |
| O=C1NCCC[C@]12CC[C@H](c1cc(-c3ccc(F)cc3)ccn1)N2 [Example 112, (2R,5S)-2-[4-(4-Fluoro-phenyl)-pyridin-2-yl]-1,7-diaza-spiro[4.5]decan-6-one hydrochloride] | 3.98 | 39.8 |
| O=C1NCCC[C@]12CC[C@@H](c1cc(-c3ccc(F)cc3)ccn1)N2 [Example 113, (2S,5S)-2-[4-(4-Fluoro-phenyl)-pyridin-2-yl]-1,7-diaza-spiro[4.5]decan-6-one hydrochloride] | 50.1 | 200 |
| O=C1NCC[C@]12CC[C@@H](c1cc(-c3ccc(C(F)(F)F)cc3)ccn1)N2 [Example 114, (2S,5R)-2-[4-[4-(Trifluoromethyl)phenyl]-2-pyridyl]-1,7-diazaspiro[4.4]nonan-6-one hydrochloride] | 15.8 | 79.4 |
| O=C1NCC[C@]12CC[C@H](c1cc(-c3ccc(C(F)(F)F)cc3)ccn1)N2 [Example 115, (2R,5R)-2-[4-[4-(Trifluoromethyl)phenyl]-2-pyridyl]-1,7-diazaspiro[4.4]nonan-6-one hydrochloride] | 2.51 | 31.6 |
| O=C1NCC[C@]12CC[C@@H](c1cc(-c3cccc(OC(F)(F)F)c3)ccn1)N2 [Example 116, (2S,5R)-2-[4-[3-(Trifluoromethoxy)phenyl]-2-pyridyl]-1,7-diazaspiro[4.4]nonan-6-one hydrochloride] | 10 | 79.4 |
| O=C1NCC[C@]12CC[C@H](c1cc(-c3cccc(OC(F)(F)F)c3)ccn1)N2 [Example 117, (2R,5R)-2-[4-[3-(Trifluoromethoxy)phenyl]-2-pyridyl]-1,7-diazaspiro[4.4]nonan-6-one hydrochloride] | 0.398 | 7.94 |
| O=C1NCC[C@@]12CC[C@H](c1cc(-c3cccc(OC(F)(F)F)c3)ccn1)N2 [Example 118, (2R,5S)-2-[4-[3-(Trifluoromethoxy)phenyl]-2-pyridyl]-1,7-diazaspiro[4.4]nonan-6-one hydrochloride] | 7.94 | 50.1 |
| O=C1NCC[C@@]12CC[C@@H](c1cc(-c3cccc(OC(F)(F)F)c3)ccn1)N2 [Example 119, (2S,5S)-2-[4-[3-(Trifluoromethoxy)phenyl]-2-pyridyl]-1,7-diazaspiro[4.4]nonan-6-one hydrochloride] | 3.98 | 31.6 |
| CCOc1ccc(F)c(-c2cc(C)nc([C@@H]3CC[C@]4(CCN(C)C4=O)N3)c2)c1 [Example 120, (2S,5R)-2-[4-(5-Ethoxy-2-fluoro-phenyl)-6-methyl-pyridin-2-yl]-7-methyl-1,7-diaza-spiro[4.4]nonan-6-one hydrochloride] | 0.794 | 20 |
| CCOc1ccc(F)c(-c2cc(C)nc([C@H]3CC[C@]4(CCN(C)C4=O)N3)c2)c1 [Example 121, (2R,5R)-2-[4-(5-Ethoxy-2-fluoro-phenyl)-6-methyl-pyridin-2-yl]-7-methyl-1,7-diaza-spiro[4.4]nonan-6-one hydrochloride] | 0.631 | 12.6 |

| SMILES | IC50 [1] [µM] | IC50 [2] [µM] |
| --- | --- | --- |
| COc1cc(C(F)(F)F)ccc1-c1cc(C)nc([C@@H]2CC[C@@]3(CCN(C)C3=O)N2)c1 [Example 122, (2S,5S)-2-[4-[2-Methoxy-4-(trifluoromethyl)phenyl]-6-methyl-2-pyridyl]-7-methyl-1,7-diazaspiro[4.4]nonan-6-one hydrochloride] | 3.16 | 7.94 |
| CCOc1cc(-c2cc(C)nc([C@@H]3CC[C@]4(CCN(C)C4=O)N3)c2)ccc1F [Example 123, (2S,5R)-2-[4-(3-Ethoxy-4-fluoro-phenyl)-6-methyl-2-pyridyl]-7-methyl-1,7-diazaspiro[4.4]nonan-6-one hydrochloride] | 39.8 | 251 |
| CCOc1cc(-c2cc(C)nc([C@H]3CC[C@]4(CCN(C)C4=O)N3)c2)ccc1F [Example 124, (2R,5R)-2-[4-(3-Ethoxy-4-fluoro-phenyl)-6-methyl-2-pyridyl]-7-methyl-1,7-diazaspio[4.4]nonan-6-one hydrochloride] | 7.94 | 126 |
| CCOc1cc(-c2cc(C)nc([C@H]3CC[C@@]4(CCN(C)C4=O)N3)c2)ccc1F [Example 125, hydrochloride] | 25.1 | 158 |
| CCOc1cc(-c2cc(C)nc([C@@H]3CC[C@@]4(CCN(C)C4=O)N3)c2)ccc1F [Example 126, (2S,5S)-2-[4-(3-Ethoxy-4-fluoro-phenyl)-6-methyl-2-pyridyl]-7-methyl-1,7-diazaspiro[4.4]nonan-6-one hydrochloride] | 20 | 316 |
| Cc1cc(-c2cccc(OC(F)(F)F)c2)cc([C@H]2CC[C@@]3(CCN(C)C3=O)N2)n1 [Example 127, (2R,5S)-7-Methyl-2-[6-methyl-4-[3-(trifluoromethoxy)phenyl]-2-pyridyl]-1,7-diazaspiro[4.4]nonan-6-one hydrochloride] | 12.6 | 12.6 |
| Cc1cc(-c2cccc(OC(F)(F)F)c2)cc([C@@H]2CC[C@]3(CCN(C)C3=O)N2)n1 [Example 128, (2S,5R)-7-Methyl-2-[6-methyl-4-[3-(trifluoromethoxy)phenyl]-2-pyridyl]-1,7-diazaspiro[4.4]nonan-6-one hydrochloride] | 5.01 | 20 |
| COc1cc(C(F)(F)F)ccc1-c1cc([C@@H]2CC[C@]3(CCN(C)C3=O)N2)ncc1C [Example 129, (2S,5R)-2-[4-[2-Methoxy-4-(trifluoromethyl)phenyl]-5-methyl-2-pyridyl]-7-methyl-1,7-diazaspiro[4.4]nonan-6-one hydrochloride] | 20 | 200 |
| COc1cc(C(F)(F)F)ccc1-c1cc([C@H]2CC[C@]3(CCN(C)C3=O)N2)ncc1C [Example 130, (2R,5R)-2-[4-[2-Methoxy-4-(trifluoromethyl)phenyl]-5-methyl-2-pyridyl]-7-methyl-1,7-diazaspiro[4.4]nonan-6-one hydrochloride] | 7.94 | 158 |
| COc1cc(C(F)(F)F)ccc1-c1cc([C@H]2CC[C@@]3(CCN(C)C3=O)N2)ncc1C [Example 131, (2R,5S)-2-[4-[2-Methoxy-4-(trifluoromethyl)phenyl]-5-methyl-2-pyridyl]-7-methyl-1,7-diazaspiro[4.4]nonan-6-one hydrochloride] | 2 | 100 |
| COc1cc(C(F)(F)F)ccc1-c1cc([C@@H]2CC[C@@]3(CCN(C)C3=O)N2)ncc1C [Example 132, (2S,5S)-2-[4-[2-Methoxy-4-(trifluoromethyl)phenyl]-5-methyl-2-pyridyl]-7-methyl-1,7-diazaspiro[4.4]nonan-6-one hydrochloride] | 39.8 | 251 |
| CCOc1ccc(F)c(-c2cc([C@H]3CC[C@@]4(CCN(C)C4=O)N3)ncc2C)c1 [Example 137, (2R,5S)-2-[4-(5-Ethoxy-2-fluoro-phenyl)-5-methyl-2-pyridyl]-7-methyl-1,7-diazaspiro[4.4]nonan-6-one hydrochloride] | 20 | 158 |
| CCOc1ccc(F)c(-c2cc([C@@H]3CC[C@@]4(CCN(C)C4=O)N3)ncc2C)c1 [Example 138, (2S,5S)-2-[4-(5-Ethoxy-2-fluoro-phenyl)-5-methyl-2-pyridyl]-7-methyl-1,7-diazaspiro[4.4]nonan-6-one hydrochloride] | 25.1 | 200 |
| CCOc1ccc(F)c(-c2cc([C@@H]3CC[C@]4(CCN(C)C4=O)N3)ncc2C)c1 [Example 139, (2S,5R)-2-[4-(5-Ethoxy-2-fluoro-phenyl)-5-methyl-2-pyridyl]-7-methyl-1,7-diazaspiro[4.4]nonan-6-one hydrochloride] | 39.8 | 251 |
| CCOc1ccc(F)c(-c2cc([C@H]3CC[C@]4(CCN(C)C4=O)N3)ncc2C)c1 [Example 140, (2R,5R)-2-[4-(5-Ethoxy-2-fluoro-phenyl)-5-methyl-2-pyridyl]-7-methyl-1,7-diazaspiro[4.4]nonan-6-one hydrochloride] | 31.6 | 100 |
